The record followed here is paper PMC8147781, “Discovery of Pyrrolidine-2,3-diones as Novel Inhibitors of P. aeruginosa PBP3” (Antibiotics, 2021).

Series [1] concerns the target T1, PBP3 of P. aeruginosa (PaPBP3) (Pseudomonas aeruginosa, UniProt G3XD46).
T1 construct: P. aeruginosa PBP3 (amino acids 40 to 563); His-tag; made in house; host or cells: E. coli BL21 (DE3) Rosetta, plasmid pET41_PBP-3
Nature of the series: FP-Bocillin FL competition assay. It is filed as binding. The conditions noted are these: 30 min preincubation before Bocillin FL, 37 °C; for IC50: read-out: IC50 Determination with PaPBP3, FP-Bocillin FL Assay. How it is done:
Bocillin FL is a fluorescent penicillin V derivate used as a competitor for PBP inhibitors.
Fluorescence polarisation (FP) experiments were carried out as described before. To determine the binding of Bocillin FL to PBP, 200 nM of ^PaPBP3 was incubated for 30 min with 100 nM of Bocillin FL (Thermo Fisher Scientific, Waltham, MA, USA). The fluorescence polarisation signal of free Bocillin FL was monitored in a Pherastar microplate reader (BMG Labtech, Ortenberg, Germany) in the polarisation mode with Ex/Em: 485/520 nm excitation and emission filters. Millipolarisation (mP) units were calculated using the MARS data analysis software v30.40.R2 (BMG Labtech, Ortenberg, Germany). All the experiments were done in Sorensen buffer at 37 °C using flat-bottom, black 96-well plates. […] Bocillin FL was diluted in Sorensen buffer and added to the reaction and directly measured for 30 min at 37 °C. The FP was continuously measured in the presence and absence of compound and enzyme. […] The estimated IC50 values were established by sigmoidal nonlinear regression, using Prims v.8 software.

In series [2] the target is T1, PBP3 of P. aeruginosa (PaPBP3). The series can be described thus: S2dfluo fluorescence transpeptidase assay. The conditions noted are these: for IC50: 300 nM PaPBP3, 30 min preincubation, 37 °C, read-out: IC50 Determination with PaPBP3, S2dfluo Assay; for inhibition at 100 µM: read-out: PBP3 Inhibition at 100 µM (%). It is filed as biochemical. How it is done:
The assays were carried out in the presence of 5% DMSO and 0.01% Triton X100 to avoid the formation of colloidal structures and adsorption of protein and/or compounds to surfaces. The Z’-factor determined for the assay was 0.73 ± 0.28, indicating the suitability and robustness of the assay for high throughput screening (HTS) (Figure 1B,C).
The activity of soluble ^PaPBP3 (300 nM) was measured in the presence of 0.8 mM S2d, 1 mM D-alanine and 0.5 mM mBBr for 25 min by monitoring the increase in the fluorescence intensity of mBBr at Ex/Em: 394/490 nm using an Infinite M1000 microplate reader (Tecan, Männedorf, Switzerland). To test the effect of inhibitors, 100 µM or 0.8 to 100 µM of compounds diluted in 96% DMSO were incubated for 30 min and 450 rpm with 300 nM soluble PBP3. The incubation period was set to improve the binding of non-covalent inhibitors and 0.01% Triton X100 (Sigma-Aldrich, Taufkirchen, Germany) was added to prevent aggregation of compounds. The enzyme reaction was started by adding a substrate mix of 0.8 mM S2d and […]. The enzyme, compound and substrate mix were mixed 1:1, pipetted with a Liquidator 96 (Melter Toledo, Gießen, Germany) and the fluorescence intensity was directly monitored with an Infinite M1000 microplate reader (Tecan) at Ex/Em: 394/490 nm. The assay was performed in black, flat-bottom 96-well microplates (Greiner Bio-One, Kremsmünster, Austria) at 37 °C in Sorensen Phosphate Buffer (57 mM Na2HPO4 and 10 mM KH2PO4, pH 7.5 + 0.01% Triton X-100). The velocity of the PBP3 reaction was calculated in the presence of each concentration of compound and the velocity values were used to estimate IC50 by sigmoidal nonlinear regression, using Prism v.9 software (San Diego, CA, USA) and the velocity of the reaction at each concentration.

For a further series, the system named is S. aureus 133. Nature of the series: MIC broth microdilution, S. aureus. It is filed as cell-based. The conditions noted are these: Staphylococcus aureus, 133; Table S3. The protocol:
(§1) MIC determination was performed via standard broth microdilution according to the Clinical & Laboratory Standards institute guidelines. Overnight colonies grown on BD-Columbia agar with 5% Sheep Blood (Becton Dickinson, Franklin Lakes, NJ, USA), were diluted in Mueller Hinton Broth 2 cation adjusted (MH+) medium (Thermo Fisher Scientific) to a concentration of 5 × 10^5 CFU/mL. Serial dilutions (1:2) of test compounds were incubated at 37 °C with 5 × 10^4 bacteria in a final volume of 100 μL. Sterile and growth controls in the presence of 1% DMSO and PMBN if the case, and the positive controls, aztreonam (AZT) and tigecycline (TIG) were included in the experiments (Table S4). The MICs were determined visually after 18 h at 37 °C and confirmed by the addition of 10% PrestoBlue (ThermoFisher Scientific) reagent according to the manufacture’s protocol. The fluorescence signal of PrestoBlue reagent was measured at Ex/Em: 550/595 nm after 30 min incubation at 37 °C using at a ClarioStar microplate reader (BMG Labtech). PrestoBlue reduction occurs in the presence of living cells and consequently turns red in colour and is highly fluorescent.

Series [3] concerns K. pneumoniae clinical isolate. The series can be described thus: MIC broth microdilution, K. pneumoniae. It is filed as cell-based. The conditions noted are these: Klebsiella pneumoniae; Table S3. The protocol:
as §1

Series [4] relates to NRK-52E, epithelial kidney cell line. Nature of the series: Cytotoxicity assay (PrestoBlue), NRK52E. The settings on record: CC50, 72 h. How it is done:
(§2) We finally tested the cytotoxicity of the compounds against four eukaryotic cell lines (Table 2 and Table S5), NRK-52E, an epithelial kidney cell line of Rattus norvegicus; Hep G2, an human epithelial liver cell line; and two suspension cell lines: CCRF-CEM, a T lymphoblast; and H9, a cutaneous T lymphocyte cell line.
(§3) Cell lines stored at −120 °C were thawed to 37 °C and resuspended in 10 mL of medium pre-warmed to 37 °C. Cells were pelleted at 300× g for 10 min, and then resuspended in fresh medium, seeded in a T-75 culture flask, and placed in a CO2 incubator (37 °C with 5% CO2 tension). Once the cells reached approximately 70–80% confluency, they were then passaged regularly. The adherent cell lines NRK52E, HepG2 and Huh 7 were washed once with 10 mL DPBS and detached with Trypsin-EDTA for 5 to 7 min and resuspended in 15 mL of the appropriate medium. The suspension cell line CCRF-CEM were diluted and resuspended in fresh RPMI 1640 PAN medium. To calculate the cell density, the cell resuspensions were diluted 1:6 with DPBS. Equal volumes of cell suspension and Trypan Blue were mixed and gently loaded into a haemocytometer (INCYTO, 31056 Republic of Korea). In each experiment, cell concentrations were adjusted to reach a concentration of 2.5 × 10^3 cell/well for NRK52E, 5 × 10^3 cell/well for HepG2, 6.2 × 10^4 cell/well for CCRF-CEM and 3 × 10^3 for H9. The cells were incubated with decreasing concentration of compounds (1 µL in 96% DMSO) for 72 h at 37 °C with 5% CO2 tension. Cycloheximide, a cytotoxic compound that interferes with the translocation step in eukaryotic protein synthesis was used as a control for the experiments. The assay was carried out in flat-bottom, transparent 96-well plates. Cell viability was determined using the PrestoBlue reagent (Thermo Fisher Scientific, Waltham, MA, USA) according to the manufacture’s protocol. First, 10× PrestoBlue was added to each well to obtain a 1× solution, and incubated at 37 °C for 45 min. Then, fluorescence was measured at Ex/Em: 550/595 nm using a ClarioStar microplate reader (BMG Labtech). Cytotoxicity was determined as the percentage of the difference in absorbance of the untreated sample to the treated sample. CC50 was calculated using the values obtained in each concentration using the sigmoidal dose-response by Prism v.8. The media used in each cell line is detailed in Table S6.

The subject of the next series is E. coli Neumann. Nature of the series: MIC broth microdilution, E. coli. It is filed as cell-based. The settings on record: Escherichia coli; Table S3; read-out: MIC (µM) E. coli Neumann. The protocol:
as §1

Series [5] relates to T-lymphoblast CCRF-CEM cell line. Nature of the series: Cytotoxicity assay (PrestoBlue), CCRF-CEM. The conditions noted are these: CC50, 72 h. The protocol:
as §2, §3

Series [6] concerns Hep G2, epithelial liver cell line. The series can be described thus: Cytotoxicity assay (PrestoBlue), HepG2. The conditions noted are these: CC50, 72 h. How it is done:
as §2, §3

The subject of a further series is B. subtilis 168. Nature of the series: MIC broth microdilution, B. subtilis. The class given is cell-based. The conditions noted are these: Bacillus subtilis, 168; Table S3. The protocol: as §1
A further series deals with S. pneumoniae. The series can be described thus: MIC broth microdilution, S. pneumoniae. The conditions noted are these: Streptococcus pneumoniae; Table S3; read-out: MIC (µM) S. pneumoniae. The class given is cell-based. How it is done: as §1
The test system of another series is A. baumannii ATCC15308. The series can be described thus: MIC broth microdilution, A. baumannii. It is filed as cell-based. The conditions noted are these: 10 µg/mL PMBN. The protocol: as §1
The test system of series [7] is H9, cutaneous T lymphocyte cell line. Nature of the series: Cytotoxicity assay (PrestoBlue), H9. The conditions noted are these: CC50, 72 h. How it is done: as §2, §3

SMILES strings stand for the structures. Values after ≈ are worked out from the molar mass of the structure shown. Bounds are passed on as bounds.

T1 sequence (G3XD46 40-563): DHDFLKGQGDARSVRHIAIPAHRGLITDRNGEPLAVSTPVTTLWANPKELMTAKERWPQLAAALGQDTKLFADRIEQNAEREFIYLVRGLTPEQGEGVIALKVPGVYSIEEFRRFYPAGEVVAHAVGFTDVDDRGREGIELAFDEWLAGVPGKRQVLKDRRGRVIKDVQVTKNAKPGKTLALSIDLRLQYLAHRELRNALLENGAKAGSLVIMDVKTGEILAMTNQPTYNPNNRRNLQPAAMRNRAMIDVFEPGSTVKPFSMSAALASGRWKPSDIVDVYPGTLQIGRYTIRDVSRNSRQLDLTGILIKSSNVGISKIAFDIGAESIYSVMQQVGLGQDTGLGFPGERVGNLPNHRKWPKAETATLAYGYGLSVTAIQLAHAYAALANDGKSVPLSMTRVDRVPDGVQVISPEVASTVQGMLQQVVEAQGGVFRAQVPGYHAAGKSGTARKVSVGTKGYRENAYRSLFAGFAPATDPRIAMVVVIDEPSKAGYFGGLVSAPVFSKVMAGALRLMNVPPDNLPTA

Take `CCCCCCOc1cccc(N2C(=O)C(O)=C(C(=O)c3ccccc3)C2c2ccc(C(C)C)cc2)c1` (stereo not shown) [Compound 2]: the IC50 in series [1] worked out at 17 ± 9 µM. Also, in series [2], the concentration for half-maximal inhibition (IC50) worked out at 4 ± 6 µM and the inhibition at 100 µM worked out at 101 ± 0.4%.

Regarding `CCCCCCOc1cccc(N2C(=O)C(O)=C(C(=O)c3ccccc3)C2c2ccccc2F)c1` (stereo not shown) [Compound 3], in [1], the “IC50 Determination with PaPBP3, FP-Bocillin FL Assay” value is listed as “failed to inhibit Bocillin FL binding” and the IC50 was > 100 µM. Further, in series [2], the 50% inhibitory concentration (IC50) was determined as 19 ± 1 µM and the inhibition at 100 µM was determined as 100 ± 0.8%.

Turning to `CCOC(=O)c1ccc(N2C(=O)C(O)=C(S(=O)(=O)c3ccccc3)C2c2ccc(C(C)C)cc2)cc1` (stereo not shown) [Compound 4], in series [1], the “IC50 Determination with PaPBP3, FP-Bocillin FL Assay” value is given as “failed to inhibit Bocillin FL binding” and the IC50 is > 100 µM. In [2], the IC50 was determined as 24 ± 20 µM and the inhibition at 100 µM stood at 101%.

In the case of `COc1ccc(N2C(=O)C(O)=C(C(=O)c3ccc4c(c3)OCO4)C2c2ccc(Br)cc2)cc1` (stereo not shown) [Compound 5], the figures for the IC50 in [1] and in [2] were 69 ± 13 µM and 61 ± 1 µM, respectively.

On to `COc1ccc(C(=O)C2=C(O)C(=O)N(CCc3c(C)[nH]c4ccccc34)C2c2ccc(Cl)cc2)cc1` (stereo not shown) [Compound 6], for which the IC50 in series [1] was 9 ± 6 µM; in series [2], 63 ± 4 µM. The inhibition at 100 µM in series [2] was found to be 92 ± 7%.

As to `COc1ccc(C2=C(O)C(=O)N(c3nc(SCc4ccccc4)n[nH]3)C2c2ccccc2F)cc1` (stereo not shown) [Compound 7], the concentration for half-maximal inhibition (IC50) in [1] was 58 ± 21 µM. Further, in series [2], the IC50 was determined as 65 ± 19 µM and the inhibition at 100 µM turned out to be 62%.

For `COc1ccc(CN2C(=O)/C(=C(/C)O)C(=O)[C@@H]2COC(C)(C)C)c(OC)c1` [Compound 8], the half-inhibitory concentration (IC50) in series [1] is 93 ± 18 µM; in series [2] it was 66 ± 16 µM.

`CSc1ccc(C2c3c(oc4cc(C)cc(C)c4c3=O)C(=O)N2CC2CCCO2)cc1` (stereo not shown) [Compound 9]: the half-inhibitory concentration (IC50) in [1] worked out at 18 ± 3 µM; in series [2], 99 ± 1 µM. For the same molecule, the inhibition at 100 µM in series [2] was determined as 60%.

In the case of `O=C(C1=C(O)C(=O)N(Cc2c[nH]c3ccccc23)C1c1ccc(Cl)cc1)c1ccc(Br)cc1` (stereo not shown) [Compound 39], the MIC against S. aureus 133 is 25 µM (≈ 13 µg/mL); in series [3] it was > 100 µM; in the series with E. coli Neumann, > 100 µM; in the series with B. subtilis 168, > 100 µM; in the series with S. pneumoniae, 25 µM (≈ 13 µg/mL). Further, the “Cytotoxicity effect (µM) Epithelial kidney NRK52E” value in [4] is recorded as > 100 µM. Further, the “Cytotoxicity CCRF-CEM” value in series [5] is given as >100 µM. Also, in series [6], the “Cytotoxicity effect (µM) Epithelial liver HepG2” value is > 100 µM. Moreover, the IC50 in [1] was 11 ± 4 µM; in series [2], 24 ± 7 µM. Also, in the series with A. baumannii ATCC15308, the “MIC (µM) A. baumanii ATCC15308” value is on record as > 100 µM. Further, in series [7], the “Cytotoxicity effect (µM) T-lymphocyte H9” value was > 100 µM.

As for `C[C@@H]1C[C@@H]([C@H](O)CC2CC(=O)NC(=O)C2)C(=O)[C@@H](C)C1` [Cycloheximide, reference compound], the “Cytotoxicity effect (µM) Epithelial kidney NRK52E” value in series [4] stood at 0.20 ± 0.2 µM. In addition, in series [5], the “Cytotoxicity CCRF-CEM” value amounted to 0.66 ± 0.5 µM. Moreover, in [6], the “Cytotoxicity effect (µM) Epithelial liver HepG2” value came to 1.34 ± 0.7 µM. The “Cytotoxicity effect (µM) T-lymphocyte H9” value in series [7] was 0.53 ± 0.3 µM.
